Target: T1, PAPD5 (Homo sapiens, UniProt Q8NDF8)
T1 construct: made in house
Assay: High-throughput luminescence (KinaseGlo) RNA polyadenylation assay, ATP utilization by recombinant PAPD5
Format: biochemical
Settings: for Fold-change determined at compound concentration 33 μM / Fold-change determined at compound concentration 100 μM / Fold-change determined at compound concentration 10 μM: Table 4 (entries of Table 5), ratio of luminescence with inhibitor to DMSO; for Fold-change determined at compound concentration 33 μM: 33 μM compound; for Fold-change determined at compound concentration 100 μM: higher = higher inhibition; for Fold-change determined at compound concentration 10 μM: 10 μM compound
Procedure: Optimal conditions for an in vitro RNA polyadenylation assay using recombinant PAPD5, ATP and an oligonucleotide substrate were identified. The HTS assay involved ATP utilization by PAPD5, which reads out as a decreased luminescence signal produced by luciferase (KinaseGlo, Promega, Madison, WI).
100 nl of compound dissolved in DMSO was transferred to each well of the assay plate via pin transfer. For negative control wells, DMSO alone was added. Plates were gently vortexed for 5 seconds, then incubated for 2 hours at room temperature.
After 2 hours, 5 ul of luciferase (Promega KinaseGlo, Madison, WI) was added using a MultiDrop Combi (Thermo Fisher Scientific, Waltham, MA). The mixture was gently vortexed for 5 seconds and incubated for 10 minutes at room temperature. Plates were spun for 1 minute prior to luminescence measurements. Luminescent measurements were quantitated using a PerkinElmer EnVision™ plate reader.
˜100,000 compounds from various libraries at the ICCB-Longwood were screened in this manner in duplicate.
The fold change was the ratio of luminescence from a sample with inhibitor compared to that with DMSO. Thus, a higher number indicates higher inhibition.

T1 sequence (Q8NDF8 68-698 isoform Q8NDF8-5): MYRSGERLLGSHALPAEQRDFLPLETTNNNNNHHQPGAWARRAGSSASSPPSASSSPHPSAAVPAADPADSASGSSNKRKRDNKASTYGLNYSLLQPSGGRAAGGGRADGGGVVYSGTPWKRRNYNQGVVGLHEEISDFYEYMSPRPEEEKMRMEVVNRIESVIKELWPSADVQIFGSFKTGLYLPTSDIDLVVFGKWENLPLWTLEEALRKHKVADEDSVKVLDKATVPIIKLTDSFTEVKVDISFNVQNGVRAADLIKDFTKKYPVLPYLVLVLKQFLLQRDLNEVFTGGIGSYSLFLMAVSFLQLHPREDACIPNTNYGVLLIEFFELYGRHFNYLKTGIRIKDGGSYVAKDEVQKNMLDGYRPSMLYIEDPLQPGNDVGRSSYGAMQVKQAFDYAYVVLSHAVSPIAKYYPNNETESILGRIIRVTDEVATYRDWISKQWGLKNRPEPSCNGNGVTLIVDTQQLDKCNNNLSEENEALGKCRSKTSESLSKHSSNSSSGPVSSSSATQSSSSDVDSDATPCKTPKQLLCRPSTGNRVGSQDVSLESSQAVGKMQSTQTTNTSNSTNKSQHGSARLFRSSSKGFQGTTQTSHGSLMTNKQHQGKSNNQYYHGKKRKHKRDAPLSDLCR

| Compound | Fold-change determined at compound concentration 33 μM | Fold-change determined at compound concentration 100 μM (100 μM compound) | fold change at 100 μM concentration in the assay (100 μM compound) | Fold-change determined at compound concentration 10 μM |
| --- | --- | --- | --- | --- |
| 3-{7-Oxo-2.8.10- triazatricyclo[7.4.0.02,6]trideca- 1(13),3,5,9,11-pentaen-8-yl}propionic acid [Entry 68] | 1.162 | 1.389 | – | – |
| CC(C)C(CO)Nc1nc(Nc2ccc(C(=O)O)c(Cl)c2)c2ncn(C(C)C)c2n1 (stereo in doubt) [Entry 46, 2-chloro-4-[[2-[[(2R)-1-hydroxy-3-methylbutan-2-yl]amino]-9-propan-2-ylpurin-6-yl]amino]benzoic acid] | 1.079 | 1.328 | – | – |
| O=C(O)C1CC(=O)N(Cc2ccc3c(c2)OCO3)C1 (stereo not shown) [1-(1,3-benzodioxol-5-ylmethyl)-5-oxopyrrolidine-3-carboxylic acid] | – | – | 3.9 | – |
| Cc1csc(-c2cc(S(=O)(=O)Nc3cc(C)nc4ccccc34)c(C)s2)n1 [Entry 29, 2-methyl-N-(2-methylquinolin-4-yl)-5-(4-methyl-1,3-thiazol-2-yl)thiophene-3-sulfonamide] | 1.073 | 1.22 | – | – |
| Nc1c2ccccc2nc2ccccc12 [Entry 30, acridin-9-amine] | 1.313 | 1.944 | – | – |
| CCCCN(C)c1cc(C(=O)O)c2cc(NC(=O)c3ccccc3OC)ccc2n1 [Entry 31, 2-[butyl(methyl)amino]-6-[(2-methoxybenzoyl)amino]quinoline-4-carboxylic acid] | 1.304 | 1.895 | – | – |
| O=C(O)c1cccc(Nc2ncnc3ccc(Br)cc23)c1 [Entry 32, 3-[(6-bromoquinazolin-4-yl)amino]benzoic acid] | 1.114 | 1.236 | – | – |
| Nc1nc(N2CCCC2)nc2ccccc12 [Entry 33, 2-(1-pyrrolidinyl)-4-quinazolinamine] | 1.175 | 1.505 | – | – |
| OCCN(CCO)c1nc(N2CCCCC2)c2nc(N(CCO)CCO)nc(N3CCCCC3)c2n1 [Entry 34, 2,2′,2″,2″′-((4,8-Di(piperidin-1-yl)pyrimido[5,4-d]pyrimidine-2,6-diyl)bis(azanetriyl))tetraethanol] | 1.098 | 1.212 | – | – |
| O=C(O)C1CCCN(c2ncnc3c2oc2ccccc23)C1 (stereo not shown) [Entry 35, 1-[1]benzofuro[3,2-d]pyrimidin-4-ylpiperidine-3-carboxylic acid] | 1.04 | 1.287 | – | – |
| O=C(NCc1ccncc1)C1CCCN(c2ncnc3c2oc2ccccc23)C1 (stereo not shown) [Entry 36, 1-([1]benzofuro[3,2-d]pyrimidin-4-yl)-N-(pyridin-4-ylmethyl)piperidine-3-carboxamide] | 1.096 | 1.239 | – | – |
| O=C(NCc1ccccn1)C1CCCN(c2ncnc3c2oc2ccccc23)C1 (stereo not shown) [Entry 37, 1-([1]benzofuro[3,2-d]pyrimidin-4-yl)-N-(pyridin-2-ylmethyl)piperidine-3-carboxamide] | 1.077 | 1.218 | – | – |
| Cc1ccc(-n2c(N3CCCC(C(=O)O)C3)nc3ccsc3c2=O)cc1 (stereo not shown) [Entry 38, 1-[3-(4-methylphenyl)-4-oxo-3,4-dihydrothieno[3,2-d]pyrimidin-2-yl]piperidine-3-carboxylic acid] | 1.207 | 1.631 | – | – |
| O=C(O)C1CCCN(c2nc3c(-c4ccccc4)csc3c(=O)[nH]2)C1 (stereo not shown) [Entry 39, 1-(4-oxo-7-phenyl-3,4-dihydrothieno[3,2-d]pyrimidin-2-yl)piperidine-3-carboxylic acid] | 1.19 | 1.527 | – | – |
| COc1ccc(Nc2ncnc3sc(C(=O)O)c(C)c23)cc1OC [Entry 40, 4-(3,4-dimethoxyanilino)-5-methylthieno[2,3-d]pyrimidine-6-carboxylic acid] | 1.589 | 2.956 | – | – |
| c1cc(CNc2ncnc3sc4c(c23)CCCC4)ccn1 [Entry 41, N-(pyridin-4-ylmethyl)-5,6,7,8-tetrahydro[1]benzothieno[2,3-d]pyrimidin-4-amine] | 1.621 | 2.279 | – | 1.249 |
| COc1ccc(-c2nc(N3CCOCC3)c3sc(CN(C)c4ncc(C(=O)NO)cn4)cc3n2)cn1 [Entry 42, N-hydroxy-2-[[2-(6-methoxypyridin-3-yl)-4-morpholin-4-ylthieno[3,2-d]pyrimidin-6-yl]methyl-methylamino]pyrimidine-5-carboxamide] | 1.905 | 2.528 | – | 1.382 |
| NC(=O)C1CCN(c2ncnc3sc4c(c23)CCCC4)CC1 [Entry 43, 1-(5,6,7,8-tetrahydro[1]benzothieno[2,3-d]pyrimidin-4-yl)piperidine-4-carboxamide] | 1.648 | 2.294 | – | 1.292 |
| NC(=O)C1CCN(c2nc3c(S(=O)(=O)c4ccccc4)nnn3c3ccsc23)CC1 [Entry 44, 1-(3-(phenylsulfonyl)thieno[2,3-e][1,2,3]triazol[1,5-a]pyrimidin-5-yl)piperidine-4-carboxamide] | 1.273 | 1.651 | – | – |
| c1cc(CNc2nc(C3CC3)nc3c2CCC3)ccn1 [Entry 45, N-(2-cyclopropyl-6,7-dihydro-5H-cyclopenta[d]pyrimidin-4-yl)-N-(4-pyridylmethyl)amine] | 1.429 | 1.936 | – | – |
| CC(C)n1cnc2c(Nc3ccc(C(=O)O)cc3)nc(Cl)nc21 [Entry 47, 4-[(2-chloro-9-propan-2-ylpurin-6-yl)amino]benzoic acid] | 1.095 | 1.393 | – | – |
| O=S(=O)(Nc1ccc2nncn2n1)c1ccc(Br)cc1 [Entry 49, 4-bromo-N-([1,2,4]triazolo[4,3-b]pyridazin-6-yl)benzenesulfonamide] | 1.105 | 1.318 | – | – |
| CC(C)c1nnc2ccc(N3CCN(C)CC3)nn12 [Entry 50, 3-isopropyl-6-(4-methylpiperazino)[1,2,4]triazolo[4,3-b]pyridazine] | 1.336 | 2.083 | – | – |
| O=S(=O)(Nc1ccc2nnc(-c3ccccc3)n2n1)c1ccc(Cl)cc1 [Entry 51, 4-chloro-N-(3-phenyl-[1,2,4]triazolo[4,3-b]pyridazin-6-yl)benzenesulfonamide] | 1.242 | 1.825 | – | – |
| Clc1ccc(Nc2nnc(Cc3ccncc3)c3ccccc23)cc1 [Entry 52, N-(4-chlorophenyl)-4-(pyridin-4-ylmethyl)phthalazin-1-amine] | 1.133 | 1.275 | – | – |

Reference: patent US12171755B2, “PAPD5 inhibitors and methods of use thereof” (Children's Medical Center Corporation, priority 2017, dated 2024)
